ChEMBL document CHEMBL5143637, “Design, synthesis and antibacterial activity against pathogenic mycobacteria of conjugated hydroxamic acids, hydrazides and O-alkyl/O-acyl protected hydroxamic derivatives” (Bioorg Med Chem Lett, 2022)
Converted amounts (≈) assume the structure as drawn.

What was measured:
[1] = Inhibition of Mycobacterium tuberculosis H37Rv PDF expressed in Escherichia coli using N-formyl-methionine-alanine-serine as substrate incubated for 2.5 mins by fluorescence based microplate reader analysis
Mycobacterium marinum = experiment: Antimycobacterial activity against Mycobacterium marinum ATCC BAA-535/M assessed as inhibition of mycobacterial growth incubated for 10 to 14 days by resazurin microtiter assay; format: functional; conditions: time 10-14 day
[2] = Selectivity index, ratio of MIC90 for antimycobacterial activity against Mycobacterium smegmatis mc2 155 harbouring pMyC empty vector to MIC90 for antimycobacterial activity against wild type Mycobacterium smegmatis mc2 155; format: functional
[3] = system: Mycolicibacterium smegmatis; experiment: Antimycobacterial activity against wild type Mycobacterium smegmatis mc2 155 assessed as inhibition of mycobacterial growth incubated for 3 to 5 days by resazurin microtiter assay; format: functional; conditions: time 3-5 day
[4] = system: Mycobacteroides abscessus; experiment: Antimycobacterial activity against Mycobacterium abscessus CIP104536T with smooth morphotype assessed as inhibition of mycobacterial growth incubated for 3 to 5 days by resazurin microtiter assay; format: functional; conditions: time 3-5 day
[5] = system: Mycolicibacterium smegmatis; experiment: Antimycobacterial activity against Mycobacterium smegmatis mc2 155 harbouring pMyC::PDFMtb overexpression mutant assessed as inhibition of mycobacterial growth incubated for 3 to 5 days by resazurin microtiter assay; format: functional; conditions: time 3-5 day
[6] = Selectivity index, ratio of MIC90 for antimycobacterial activity against Mycobacterium smegmatis mc2 155 harbouring pMyC::PDFMtb overexpression mutant to MIC90 for antimycobacterial activity against wild type Mycobacterium smegmatis mc2 155; format: functional
[7] = Selectivity index, ratio of MIC50 for antimycobacterial activity against Mycobacterium smegmatis mc2 155 harbouring pMyC empty vector to MIC50 for antimycobacterial activity against wild type Mycobacterium smegmatis mc2 155; format: functional
[8] = Selectivity index, ratio of MIC50 for antimycobacterial activity against Mycobacterium smegmatis mc2 155 harbouring pMyC::PDFMtb overexpression mutant to MIC50 for antimycobacterial activity against wild type Mycobacterium smegmatis mc2 155; format: functional
[9] = system: Mycolicibacterium smegmatis; experiment: Antimycobacterial activity against Mycobacterium smegmatis mc2 155 harbouring pMyC empty vector assessed as inhibition of mycobacterial growth incubated for 3 to 5 days by resazurin microtiter assay; format: functional; conditions: time 3-5 day
[10] = system: Mycobacteroides abscessus; experiment: Antimycobacterial activity against Mycobacterium abscessus CIP104536T with rough morphotype assessed as inhibition of mycobacterial growth incubated for 3 to 5 days by resazurin microtiter assay; format: functional; conditions: time 3-5 day
[11] = (§1) Cytotoxicity against C57BL/6 mouse BMDM cells assessed as reduction in cell viability measured after 24 hrs by resazurin dye based assay; format: toxicity; conditions: C57BL/6, mouse, BMDM cells (bone marrow-derived macrophages)
[12] = system: Mycobacterium tuberculosis; experiment: Antimycobacterial activity against Mycobacterium tuberculosis mc2 6230 assessed as inhibition of mycobacterial growth incubated for 10 to 14 days by resazurin microtiter assay; format: functional; conditions: time 10-14 day
[13] = Cytotoxicity against mouse BMDM cells; format: toxicity, cell-based; conditions: BMDM cells (bone marrow-derived macrophages)
[14] = system: Mycobacterium tuberculosis; experiment: Antimycobacterial activity against Mycobacterium tuberculosis H37Rv assessed as inhibition of bacterial growth incubated for 8 days; format: functional; conditions: 192 h, time 8 day
BMDM = experiment: as §1; format: toxicity; conditions: mouse, bmdm, 24 h

SMILES | MIC50 (Mycobacterium marinum) [µg/mL] | MIC90 (Mycobacterium marinum) [µg/mL] | Ratio [2] | MIC50 [3] [µg/mL] | MIC90 [3] [µg/mL] | MIC50 [4] [µg/mL] | MIC50 [5] [µg/mL] | MIC90 [5] [µg/mL] | Ratio [6] | Ratio [7] | Ratio [8] | MIC50 [9] [µg/mL] | MIC90 [9] [µg/mL] | MIC50 [10] [µg/mL] | MIC50 [12] [µg/mL] | MIC90 [12] [µg/mL] | further results
CCCC[C@H](CN(O)C=O)C(=O)N1CCC[C@H]1C(=O)Nc1ccccn1 | – | – | – | – | – | – | – | – | – | – | – | – | – | – | – | – | IC50 [1]: 69.5 nM
NNC(=O)/C=C/c1ccc(-c2ccccc2)cc1 | 22.2 (≈ 93.2 µM) | 71.5 (≈ 300 µM) | 0.75 | 9.6 (≈ 40.3 µM) | 53.6 (≈ 225 µM) | > 100 | 56.6 (≈ 238 µM) | > 200 | > 3.7 | 0.75 | 5.9 | 7.2 (≈ 30.2 µM) | 43.8 (≈ 184 µM) | 18.9 (≈ 79.3 µM) | 13.1 (≈ 55 µM) | 22 (≈ 92.3 µM) | MIC90 [10]: > 100 µg/mL; CC50 at 24 h [11]: 125 µg/mL (≈ 525 µM)
NCC[C@H](O)C(=O)N[C@@H]1C[C@H](N)[C@@H](O[C@H]2O[C@H](CN)[C@@H](O)[C@H](O)[C@H]2O)[C@H](O)[C@H]1O[C@H]1O[C@H](CO)[C@@H](O)[C@H](N)[C@H]1O [AMIKACIN] | 0.62 (≈ 1.06 µM) | 1.7 (≈ 2.9 µM) | – | – | – | 2.3 (≈ 3.93 µM) | – | – | – | – | – | – | – | 4.3 (≈ 7.34 µM) | 0.24 (≈ 0.41 µM) | 0.37 (≈ 0.632 µM) | MIC90 [4]: 3.4 µg/mL (≈ 5.81 µM); CC50 [13]: > 90 µg/mL; MIC90 [10]: 5.9 µg/mL (≈ 10.1 µM)
NNC(=O)c1ccncc1 [ISONIAZID] | 2.8 (≈ 20.4 µM) | 9.2 (≈ 67.1 µM) | 0.86 | 1.4 (≈ 10.2 µM) | 3.1 (≈ 22.6 µM) | – | 1.2 (≈ 8.75 µM) | 2.5 (≈ 18.2 µM) | 0.8 | 0.9 | 0.84 | 1.3 (≈ 9.48 µM) | 2.7 (≈ 19.7 µM) | – | 0.07 (≈ 0.51 µM) | 0.11 (≈ 0.802 µM) | MIC [14]: 0.1 µg/mL (≈ 0.729 µM); CC50 [13]: > 20 µg/mL
NC[C@H]1O[C@H](O[C@H]2[C@H](O)[C@@H](O[C@H]3O[C@H](CO)[C@@H](O)[C@H](N)[C@H]3O)[C@H](N)C[C@@H]2N)[C@H](O)[C@@H](O)[C@@H]1O [KANAMYCIN] | – | – | 1.14 | 0.4 (≈ 0.826 µM) | 0.94 (≈ 1.94 µM) | – | 0.49 (≈ 1.01 µM) | 0.87 (≈ 1.8 µM) | 0.93 | 1.2 | 1.23 | 0.48 (≈ 0.991 µM) | 1.07 (≈ 2.21 µM) | – | – | – | –
Cl.O=C(/C=C/c1ccncc1)NO | 12.6 | 54 | – | – | – | > 100 | – | – | – | – | – | – | – | > 100 | 32.1 | 33.6 | CC50 (BMDM): < 10 µg/mL
CO[C@H]1/C=C/O[C@@]2(C)Oc3c(C)c(O)c4c(O)c(c(/C=N/N5CCN(C)CC5)c(O)c4c3C2=O)NC(=O)/C(C)=C\C=C\[C@H](C)[C@H](O)[C@@H](C)[C@@H](O)[C@@H](C)[C@H](OC(C)=O)[C@@H]1C [RIFAMPIN] | – | – | 1.09 | 0.76 (≈ 0.924 µM) | 0.76 (≈ 0.924 µM) | – | 0.63 (≈ 0.766 µM) | 2.4 (≈ 2.92 µM) | 0.93 | 0.75 | 0.83 | 0.57 (≈ 0.693 µM) | 2.83 (≈ 3.44 µM) | – | – | – | –
